What was measured:
D2 (hD2L receptor) = molecular target: T1, D2 (hD2L receptor) (Homo sapiens, UniProt P14416); assay: Radioligand binding assay, dopamine D2; settings: [3H] spiperone 1 nM; read-out: Binding affinity IC50 D2
T1 construct: purchased BioSignal Packard Inc., Montreal, Canada
Method: (§1) Radioligand binding assays for dopamine receptor family (D1, D2 and D3) were performed according to the protocols provided by the manufacturer of receptor membranes (BioSignal Packard Inc., Montreal, Canada). The radioligands used were [^3H] spiperone (for hD2L and hD3 receptors, 1 nM) and [^3H] YM-09151-2 (hD4.2 receptor, 0.06 nM). Briefly, the buffer used in the D1, D2 and D3 receptor binding assay was 50 mM Tris-HCl (pH 7.4), containing 10 mM MgCl2 and 1 mM EDTA, or 50 mM Tris-HCl (pH 7.4), containing 5 mM MgCl2, 5 mM EDTA, 5 mM KCl, 1.5 mM CaCl2 and 120 mM NaCl. For [^3H] YM-09151-2 receptor binding assays, 50 mM Tris-HCl (pH 7.4) containing 5 mM MgCl2, 5 mM EDTA, 5 mM KCl and 1.5 mM CaCl2, was used as a buffer. Nonspecific binding was determined with haloperidol (10 μM) for D2 and D3 and clozapine (10 μM) for D4 receptors.
(§2) Competition binding studies were carried out with 7-8 concentrations of the test compound run in duplicate tubes, and isotherms from three assays were calculated by computerized nonlinear regression analysis (GraphPad Prism Program, San Diego, […]) to yield median inhibitory concentration (IC50) values.

D4 (hD4.2 receptor) = molecular target: T2, D4 (hD4.2 receptor) (Homo sapiens, UniProt P21917, DEL265-296); assay: Radioligand binding assay, dopamine D4; settings: [3H] YM-09151-2 0.06 nM; read-out: Binding affinity IC50 D4
T2 construct: purchased BioSignal Packard Inc., Montreal, Canada
T2 sequence (P21917 with tags, fused parts or gaps DEL265-296): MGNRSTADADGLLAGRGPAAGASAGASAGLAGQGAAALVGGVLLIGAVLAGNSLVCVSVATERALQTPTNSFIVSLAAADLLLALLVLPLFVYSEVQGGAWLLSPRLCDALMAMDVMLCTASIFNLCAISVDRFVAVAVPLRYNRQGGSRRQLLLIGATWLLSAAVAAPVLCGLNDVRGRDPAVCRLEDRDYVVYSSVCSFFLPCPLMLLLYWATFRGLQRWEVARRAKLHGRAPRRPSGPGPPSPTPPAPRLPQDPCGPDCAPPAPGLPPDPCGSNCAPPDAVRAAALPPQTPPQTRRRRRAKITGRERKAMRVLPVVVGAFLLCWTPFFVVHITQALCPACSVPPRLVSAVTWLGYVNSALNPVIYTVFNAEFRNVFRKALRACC
Method: as §1, §2

[1] = molecular target: 5-HT7 (human recombinant receptor, CHO-K1) (Homo sapiens, UniProt P34969); assay: Radioligand binding assay, 5-HT7
Chain of 5-HT7 (human recombinant receptor, CHO-K1) (P34969 whole entry): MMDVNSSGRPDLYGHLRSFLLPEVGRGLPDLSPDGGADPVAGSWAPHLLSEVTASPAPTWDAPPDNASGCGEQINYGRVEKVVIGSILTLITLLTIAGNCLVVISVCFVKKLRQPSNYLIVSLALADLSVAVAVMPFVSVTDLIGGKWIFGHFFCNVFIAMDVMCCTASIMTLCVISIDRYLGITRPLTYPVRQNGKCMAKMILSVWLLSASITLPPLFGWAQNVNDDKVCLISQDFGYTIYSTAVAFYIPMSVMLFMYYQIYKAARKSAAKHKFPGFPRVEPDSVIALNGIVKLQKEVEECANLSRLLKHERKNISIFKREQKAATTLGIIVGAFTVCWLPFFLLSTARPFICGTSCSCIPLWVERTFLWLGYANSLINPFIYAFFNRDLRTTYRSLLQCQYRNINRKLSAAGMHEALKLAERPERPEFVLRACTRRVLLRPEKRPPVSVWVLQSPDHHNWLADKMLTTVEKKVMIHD

[2] = molecular target: T3, 5-HT1a (human recombinant receptor, CHO-K1) (Homo sapiens, UniProt P08908); assay: Radioligand binding assay, 5-HT1a
T3 sequence (P08908 1-422): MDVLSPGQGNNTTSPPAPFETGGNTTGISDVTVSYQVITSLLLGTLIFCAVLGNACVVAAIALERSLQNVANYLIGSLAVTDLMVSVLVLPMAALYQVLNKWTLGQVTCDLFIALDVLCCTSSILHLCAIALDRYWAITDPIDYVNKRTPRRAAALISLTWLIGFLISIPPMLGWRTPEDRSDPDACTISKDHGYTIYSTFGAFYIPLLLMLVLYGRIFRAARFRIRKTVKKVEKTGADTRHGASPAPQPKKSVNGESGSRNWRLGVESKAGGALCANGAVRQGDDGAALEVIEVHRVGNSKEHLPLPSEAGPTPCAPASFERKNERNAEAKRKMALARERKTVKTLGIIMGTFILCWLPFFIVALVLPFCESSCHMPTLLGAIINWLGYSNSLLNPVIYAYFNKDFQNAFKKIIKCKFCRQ

[3] = molecular target: 5-HT2a (human recombinant receptor, CHO-K1) (Homo sapiens, UniProt P28223); assay: Radioligand binding assay, 5-HT2a
Chain of 5-HT2a (human recombinant receptor, CHO-K1) (P28223 whole entry): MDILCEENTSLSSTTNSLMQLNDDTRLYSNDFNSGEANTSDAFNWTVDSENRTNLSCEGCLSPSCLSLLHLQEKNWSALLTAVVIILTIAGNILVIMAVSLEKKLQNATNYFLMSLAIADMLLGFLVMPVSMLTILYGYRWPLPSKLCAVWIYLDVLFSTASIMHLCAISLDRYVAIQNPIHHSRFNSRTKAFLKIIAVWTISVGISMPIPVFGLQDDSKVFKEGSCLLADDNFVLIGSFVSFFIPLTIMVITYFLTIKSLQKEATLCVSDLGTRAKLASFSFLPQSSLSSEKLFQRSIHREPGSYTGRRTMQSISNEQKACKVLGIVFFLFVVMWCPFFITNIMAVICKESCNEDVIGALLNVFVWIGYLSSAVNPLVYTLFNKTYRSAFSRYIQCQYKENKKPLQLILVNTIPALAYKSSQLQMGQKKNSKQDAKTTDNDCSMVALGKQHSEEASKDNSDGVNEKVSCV

[4] = molecular target: T4, 5-HT2c (human recombinant receptor, CHO-K1) (Homo sapiens, UniProt P28335); assay: Radioligand binding assay, 5-HT2c
T4 sequence (P28335 33-458): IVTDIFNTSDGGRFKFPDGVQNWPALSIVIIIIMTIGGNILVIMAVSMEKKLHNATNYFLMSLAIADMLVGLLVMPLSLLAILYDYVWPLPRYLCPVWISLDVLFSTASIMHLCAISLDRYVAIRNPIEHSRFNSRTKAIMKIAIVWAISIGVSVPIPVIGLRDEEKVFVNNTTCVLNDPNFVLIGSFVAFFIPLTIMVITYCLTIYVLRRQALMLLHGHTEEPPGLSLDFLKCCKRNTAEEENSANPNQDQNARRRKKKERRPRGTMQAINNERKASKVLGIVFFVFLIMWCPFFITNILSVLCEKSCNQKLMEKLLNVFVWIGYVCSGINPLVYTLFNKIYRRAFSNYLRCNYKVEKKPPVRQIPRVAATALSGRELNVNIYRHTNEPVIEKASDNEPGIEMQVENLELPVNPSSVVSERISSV

D3 (hD3 receptor) = D3 (hD3 receptor) (Homo sapiens, UniProt P35462); assay: Radioligand binding assay, dopamine D3
Chain of D3 (hD3 receptor) (P35462 whole entry): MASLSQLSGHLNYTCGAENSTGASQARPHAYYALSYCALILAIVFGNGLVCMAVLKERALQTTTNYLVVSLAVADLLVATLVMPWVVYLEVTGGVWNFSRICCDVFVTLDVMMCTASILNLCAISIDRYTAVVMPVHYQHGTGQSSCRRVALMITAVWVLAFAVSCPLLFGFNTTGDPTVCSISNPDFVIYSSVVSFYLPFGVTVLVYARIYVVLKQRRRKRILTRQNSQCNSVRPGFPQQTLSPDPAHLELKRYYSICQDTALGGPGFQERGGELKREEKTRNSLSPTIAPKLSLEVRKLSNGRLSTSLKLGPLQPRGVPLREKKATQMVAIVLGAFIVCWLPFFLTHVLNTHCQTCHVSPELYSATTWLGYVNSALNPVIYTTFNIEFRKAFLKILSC

[5] = molecular target: human serotonin 5-HT6 receptor (Homo sapiens, UniProt P50406); assay: [3H]LSD binding assay for cloned 5-HT6 receptors
Chain of human serotonin 5-HT6 receptor (P50406 whole entry): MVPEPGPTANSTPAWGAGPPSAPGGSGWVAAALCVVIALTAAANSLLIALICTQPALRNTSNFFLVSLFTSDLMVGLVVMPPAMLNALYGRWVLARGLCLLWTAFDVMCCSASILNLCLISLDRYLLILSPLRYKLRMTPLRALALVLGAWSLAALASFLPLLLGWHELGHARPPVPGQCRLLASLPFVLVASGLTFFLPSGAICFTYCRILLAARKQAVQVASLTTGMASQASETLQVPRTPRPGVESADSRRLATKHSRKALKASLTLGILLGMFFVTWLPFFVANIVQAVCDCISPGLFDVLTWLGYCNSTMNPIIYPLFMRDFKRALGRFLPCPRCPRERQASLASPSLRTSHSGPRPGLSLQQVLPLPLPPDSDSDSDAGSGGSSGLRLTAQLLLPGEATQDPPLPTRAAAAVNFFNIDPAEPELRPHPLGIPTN

T1 sequence (P14416 whole entry): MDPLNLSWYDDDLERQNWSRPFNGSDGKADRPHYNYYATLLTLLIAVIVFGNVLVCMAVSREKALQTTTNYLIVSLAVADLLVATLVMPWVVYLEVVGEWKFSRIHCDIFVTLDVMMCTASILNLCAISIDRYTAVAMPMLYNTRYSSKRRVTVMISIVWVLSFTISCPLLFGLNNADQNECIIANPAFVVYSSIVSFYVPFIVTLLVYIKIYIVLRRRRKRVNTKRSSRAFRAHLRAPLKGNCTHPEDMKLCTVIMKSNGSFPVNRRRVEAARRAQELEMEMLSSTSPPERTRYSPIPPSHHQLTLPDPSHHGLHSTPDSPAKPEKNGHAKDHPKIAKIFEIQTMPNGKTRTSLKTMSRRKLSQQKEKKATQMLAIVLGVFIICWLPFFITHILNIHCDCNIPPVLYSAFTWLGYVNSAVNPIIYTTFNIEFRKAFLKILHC

Structure (SMILES) | IC50 (D2 (hD2L receptor)) [nM] | IC50 (D4 (hD4.2 receptor)) [nM] | melting point [°C] | IC50 [1] [nM] | IC50 [2] [nM] | IC50 [3] [nM] | IC50 [4] [nM] | IC50 (D3 (hD3 receptor)) [nM] | IC50 [5] [nM]
CN1CCN(c2cc(Cl)cc3c2c(=O)n(Cc2ccccc2Cl)c(=O)n3Cc2ccccc2)CC1 [Example 17, 1-benzyl-7-chloro-3-(2-chloro-benzyl)-5-(4-methyl-piperazin-1-yl)-1H-quinazoline-2,4-dione] | > 10000 | > 10000 | 87 to 92 | 2180 | 3280 | 169 | 512 | 138 | 0.5
CN1CCN(c2cc(Cl)cc3c2c(=O)n(Cc2cccc([N+](=O)[O-])c2)c(=O)n3Cc2ccccc2)CC1 [Example 32, 1-benzyl-7-chloro-5-(4-methyl-piperazin-1-yl)-3-(3-nitro-benzyl)-1H-quinazoline-2,4-dione] | > 10000 | > 10000 | 200 to 205 | > 10000 | 3800 | 1800 | 1560 | 276 | 0.6
CN1CCN(c2cc(Cl)cc3c2c(=O)n(Cc2ccccc2[N+](=O)[O-])c(=O)n3Cc2ccccc2)CC1 [Example 31, 1-benzyl-7-chloro-5-(4-methyl-piperazin-1-yl)-3-(2-nitro-benzyl)-1H-quinazoline-2,4-dione] | > 10000 | > 10000 | 164 to 169 | > 10000 | 2240 | 49 | 952 | 1240 | 1.4
CN1CCN(c2cc(Cl)cc3c2c(=O)n(Cc2cccc(F)c2)c(=O)n3Cc2ccccc2)CC1 [Example 12, 1-benzyl-7-chloro-3-(3-fluoro-benzyl)-5-(4-methyl-piperazin-1-yl)-1H-quinazoline-2,4-dione] | > 10000 | > 10000 | 148 to 150 | 1670 | 718 | 622 | 1060 | 490 | 1.9
CN1CCN(c2cc(Cl)cc3c2c(=O)n(Cc2ccccc2Br)c(=O)n3Cc2ccccc2)CC1 [Example 14, 1-benzyl-3-(2-bromo-benzyl)-7-chloro-5-(4-methyl-piperazin-1-yl)-1H-quinazoline-2,4-dione] | 3320 | > 10000 | 91 to 93 | 5940 | 1080 | 394 | 728 | 480 | 0.9
O=c1c2c(N3CCNCC3)cc(Cl)cc2n(Cc2ccccc2)c(=O)n1Cc1ccccc1F [Example 58, 1-benzyl-7-chloro-3-(2-fluoro-benzyl)-5-piperazin-1-yl-quinazoline-2,4-dione] | > 10000 | > 10000 | 98 to 109 | > 10000 | 2850 | 220 | 540 | 3130 | 0.6
Cc1cccc(Cn2c(=O)c3c(N4CCN(C)CC4)cc(Cl)cc3n(Cc3ccccc3)c2=O)c1 [Example 23, 1-benzyl-7-chloro-3-(3-methyl-benzyl)-5-(4-methyl-piperazin-1-yl)-1H-quinazoline-2,4-dione] | – | – | 171 to 175 | – | – | – | – | – | 2.6
CN1CCN(c2cc(Cl)cc3c2c(=O)n(CC2CCCCC2)c(=O)n3Cc2ccccc2)CC1 [Example 6, 1-benzyl-7-chloro-3-cyclohexylmethyl-5-(4-methyl-piperazin-1-yl)-1H-quinazoline-2,4-dione] | – | – | 163 to 169 | – | – | – | – | – | 4.2
CN1CCN(c2cc(Cl)cc3c2c(=O)n(Cc2cccc(Br)c2)c(=O)n3Cc2ccccc2)CC1 [Example 15, 1-benzyl-3-(3-bromo-benzyl)-7-chloro-5-(4-methyl-piperazin-1-yl)-1H-quinazoline-2,4-dione] | – | – | 154 to 157 | – | – | – | – | – | 2.7
COc1ccc(-n2c(=O)c3c(N4CCN(C)CC4)cc(Cl)cc3n(Cc3ccccc3)c2=O)cc1 [Example 9, 1-benzyl-7-chloro-3-(4-methoxy-phenyl)-5-(4-methyl-piperazin-1-yl)-1H-quinazoline-2,4-dione] | – | – | 155 to 158 | – | – | – | – | – | 12.4
CN1CCN(c2cc(Cl)cc3c2c(=O)n(Cc2ccc(O)cc2)c(=O)n3Cc2ccccc2)CC1 [Example 30, 1-benzyl-7-chloro-3-(4-hydroxy-benzyl)-5-(4-methyl-piperazin-1-yl)-1H-quinazoline-2,4-dione] | – | – | 138 to 140 | – | – | – | – | – | 27
O=c1c2c(N3CCNCC3)cc(Cl)cc2n(Cc2ccccc2)c(=O)n1Cc1ccccc1O [Example 65, 1-benzyl-7-chloro-3-(2-hydroxy-benzyl)-5-piperazin-1-yl-1H-quinazoline-2,4-dione] | – | – | 113 to 130 | – | – | – | – | – | 5.9
COc1ccc(Cn2c(=O)c3c(N4CCN(C)CC4)cc(Cl)cc3n(Cc3ccccc3)c2=O)cc1 [Example 27, 1-benzyl-7-chloro-3-(4-methoxy-benzyl)-5-(4-methyl-piperazin-1-yl)-1H-quinazoline-2,4-dione] | – | – | 81 to 89 | – | – | – | – | – | 10.2
CCn1c(=O)c2c(N3CCN(C)CC3)cc(Cl)cc2n(Cc2ccccc2)c1=O [Example 2, 1-benzyl-7-chloro-3-ethyl-5-(4-methyl-piperazin-1-yl)-1H-quinazoline-2,4-dione] | – | – | 155 to 159 | – | – | – | – | – | 3.1
CN1CCN(c2cc(Cl)cc3[nH]c(=O)n(Cc4ccccc4)c(=O)c23)CC1 [Example 49, 3-benzyl-7-chloro-5-(4-methyl-piperazin-1-yl)-1H-quinazoline-2,4-dione] | – | – | 208 to 210 | – | – | – | – | – | > 1000
CN1CCN(c2cc(Cl)cc3c2c(=O)n(Cc2ccc(Br)cc2)c(=O)n3Cc2ccccc2)CC1 [Example 16, 1-benzyl-3-(4-bromo-benzyl)-7-chloro-5-(4-methyl-piperazin-1-yl)-1H-quinazoline-2,4-dione] | – | – | 93 to 98 | – | – | – | – | – | 3.3
COc1cccc(Cn2c(=O)c3c(N4CCN(C)CC4)cc(Cl)cc3n(Cc3ccccc3)c2=O)c1 [Example 26, 1-benzyl-7-chloro-3-(3-methoxy-benzyl)-5-(4-methyl-piperazin-1yl)-1H-quinazoline-2,4-dione] | – | – | 98 to 110 | – | – | – | – | – | 7.9

From US20090203708A1, “NOVEL SUBSTITUTED-1-H-QUINAZOLINE-2,4-DIONE DERIVATIVES, PREPARATION METHOD THEREOF AND PHARMACEUTICAL COMPOSITION CONTAINING THE SAME” (Korea Research Institute of Chemical Technology, priority 2006, published 2009)
